Data from US12616203B2, “Use of 3-isoxazolidinones compounds as selective herbicides” (FMC Corporation, priority 2014, dated 2026).

How the values were obtained:
weeds; Wheat and canola = experiment: Ex27 PRE greenhouse; type: in vivo; details: weed and rate in the words
Excerpt: The weeds tested in this study were Italian ryegrass (Lolium perenne. multiflorum, LOLMU), wild mustard (Sinapis arvensis, SINAR), annual bluegrass (Poa annua POAAN), wild oat (Avena fatua, AVEFA), blackgrass (Alopecurus myosuroides, ALOMY), common lambsquarters (Chenopodium album […] (Phalaris minor, PHAMI), common chickweed (Stellaria media, STEME), corn poppy (Papaver rhoeas PAPRH). The crops tested were Wheat and canola. […] Treatments were applied before the emergence of Italian ryegrass, wild oat, blackgrass, littleseed canarygrass, common chickweed, common lambsquarters, corn poppy, wild mustard, annual bluegrass, canola, and wheat. […] Flats were watered and fertilized routinely after treatment application. […] Wheat and corn poppy were rated at 14 and 21 DAT only.

[1] = test system: common lambsquarters (CL); experiment: Ex2 PRE greenhouse, % control; type: in vivo, Chenopodium album; details: 28 DAT, g ai/ha by row: r12-40 2,4-DC 31.25/62.5/125/250/375 (3 rows each) + metazachlor 250/500/750 (cycling), r42-46 2,4-DC 31.25/62.5/125/250/375, r47-49 metazachlor 250/500/750
Method: (§1) Test compositions containing 2,4 DC Example 1B and metazachlor (Butisan® S, 43.1% active ingredient, BASF) and mixtures of 2-(2,4-dichlorophenyl)methyl-4,4-dimethyl-3-isoxazolidinone and metazachlor, were diluted with water to provide the appropriate test rate concentrations.
(§2) The test crops were wheat and canola (Brassica napus), the test weeds were Italian ryegrass (IR) (Lolium perenne. multiflorum), annual bluegrass (AB) (Poa annua), common lambsquarters (CL) (Chenopodium album), littleseed canarygrass (LC) (Phalaris minor), common chickweed (CC) (Stellaria media), and corn poppy (CP) (Papaver rhoeas).
(§3) For pre-emergence testing, four disposable fiber flats (6″ by 10″) for each rate of application of each herbicide solution were filled with top soil, to which seeds of each species were planted in furrows made by a template pressed on the top of the soil. The furrows were covered with soil after planting the seed and were watered well before application of the test compounds. […]
(§4) The control of weeds was evaluated in each experimental test at 21 days after treatment (DAT) for corn poppy and wheat and 28 DAT for all other species. […]
(§5) Percent control was determined by a method similar to the 0 to 100 rating system disclosed in “Research Methods in Weed Science,” 2nd ed., B. Truelove, Ed.; Southern Weed Science Society; Auburn University, Auburn, Ala., 1977.

common chickweed (CC) = experiment: Ex2 PRE greenhouse, % control; type: in vivo, Stellaria media; details: 28 DAT, g ai/ha by row: r12-40 2,4-DC 31.25/62.5/125/250/375 (3 rows each) + metazachlor 250/500/750 (cycling), r42-46 2,4-DC 31.25/62.5/125/250/375, r47-49 metazachlor 250/500/750
Method: as §1, §2, §3, §4, §5

[2] = test system: littleseed canarygrass (LC); experiment: Ex2 PRE greenhouse, % control; type: in vivo, Phalaris minor; details: 28 DAT, g ai/ha by row: r12-40 2,4-DC 31.25/62.5/125/250/375 (3 rows each) + metazachlor 250/500/750 (cycling)
Excerpt: Fiber flats designated for treatment were placed in a spray chamber having a static platform and a movable sprayer and height of the spray nozzle was 10.5 inches above the soil level. Once the sprayer was calibrated using water for spray volume of 30 gallons per acre, flats were sprayed with sprayer at a speed to receive a coverage equivalent of 30 gallons per acre. […] The pre-emergence flats were immediately placed in the greenhouse and watered lightly after treatment. Thereafter they were regularly watered and fertilized for the duration of the test.

annual bluegrass (AB) = experiment: Ex2 PRE greenhouse, % control; type: in vivo, Poa annua; details: 28 DAT, g ai/ha by row: r12-40 2,4-DC 31.25/62.5/125/250/375 (3 rows each) + metazachlor 250/500/750 (cycling), r42-46 2,4-DC 31.25/62.5/125/250/375, r47-49 metazachlor 250/500/750
Method: as §1, §2, §3, §4, §5

corn poppy (CP) = experiment: Ex2 PRE greenhouse, % control; type: in vivo, Papaver rhoeas; details: 21 DAT, g ai/ha by row: r12-40 2,4-DC 31.25/62.5/125/250/375 (3 rows each) + metazachlor 250/500/750 (cycling), r42-46 2,4-DC 31.25/62.5/125/250/375, r47-49 metazachlor 250/500/750
Method: as §1, §2, §3, §4, §5

weeds = experiment: Ex18 PRE greenhouse; type: in vivo; details: weed and rate in the words
Excerpt: Additional treatments included application of metazachlor (Butisan®, 43.1%) at 750 g ai/ha, napropamide (Devrinol DF®, 50%) at 1260 g ai/ha, and dimethachlor (Teridox®, 48%) at 1000 g ai/ha. […] Treatments were applied just after the seeding of annual bluegrass, cheat, wild oat, quackgrass, field violet, blackgrass, littleseed canarygrass, silky windgrass, yellow foxtail, and goosegrass. […] Flats were watered and fertilized routinely after treatment application. Each treatment was replicated three times.

Italian ryegrass (IR) = experiment: Ex2 PRE greenhouse, % control; type: in vivo, Lolium perenne. multiflorum; details: 28 DAT, g ai/ha by row: r12-40 2,4-DC 31.25/62.5/125/250/375 (3 rows each) + metazachlor 250/500/750 (cycling)
Method: as §1, §2
For pre-emergence testing, four disposable fiber flats (6″ by 10″) for each rate of application of each herbicide solution were filled with top soil, to which seeds of each species were planted in furrows made by a template pressed on the top of the soil. The furrows were covered with soil after planting the seed and were watered well before application of the test compounds.
Fiber flats designated for treatment were placed in a spray chamber having a static platform and a movable sprayer and height of the spray nozzle was 10.5 inches above the soil level. Once the sprayer was calibrated using water for spray volume of 30 gallons per acre, flats were sprayed with sprayer at a speed to receive a coverage equivalent of 30 gallons per acre. The application rates are those shown in Table 1 below for the individual herbicidal solutions and the herbicide compositions of the present invention. The pre-emergence flats were immediately placed in the greenhouse and watered lightly after treatment. Thereafter they were regularly watered and fertilized for the duration of the test.
The control of weeds was evaluated in each experimental test at 21 days after treatment (DAT) for corn poppy and wheat and 28 DAT for all other species. The results, shown as an average of the replications were compared with results observed in untreated control flats in the same tests.
as §5

[3] = r42-46 2,4-DC 31.25/62.5/125/250/375, r47-49 metazachlor 250/500/750, 250 g ai/ha
[4] = r42-46 2,4-DC 31.25/62.5/125/250/375, r47-49 metazachlor 250/500/750, 500 g ai/ha

SMILES: Cc1cccc(C)c1N(Cn1cccn1)C(=O)CCl [Metazachlor, metazachlor]
- weed control in words (weeds; Wheat and canola): alone controlled blackgrass at 750 g
- % Control CL [1]: 100%
- % Control CC (common chickweed (CC)): 100%
- % Control LC [2, 3]: 99%
- % Control LC [2, 4]: 100%
- % Control AB (annual bluegrass (AB)): 100%
- % Control CP (corn poppy (CP)): 100%
- weed control in words (weeds): controlled all weeds
- % Control IR (Italian ryegrass (IR); [3]): 96%
- % Control IR (Italian ryegrass (IR); [4]): 98%
- % Control IR (Italian ryegrass (IR); r42-46 2,4-DC 31.25/62.5/125/250/375, r47-49 metazachlor 250/500/750, 750 g ai/ha): 99%
